Structures are written as SMILES. Several values for one entry are separate records, joined by “and”; a condition that tells them apart may be missing. Identical values can stand only once. Like-named read-outs stand apart in the source and are kept apart here. Some results are limits rather than exact numbers.

Experiment [1] has as its system Staphylococcus aureus ATCC 6538P. Put plainly: broth microdilution MIC, S. aureus. Format: cell-based. On the procedure:
(§1) The antimicrobial activities of the heteroaromatic ligands, Mn(II) complexes, and commercially available drug streptomycin were tested against standard bacterial strains: Staphylococcus aureus ATCC 6538P, Escherichia coli ATCC 8739, Pseudomonas aeruginosa PAO1 (biofilm model strain), and Pseudomonas aeruginosa LES B58 (clinical isolate). The P. aeruginosa PAO1 and LES B58 isolates were derived from the International Pseudomonas aeruginosa Reference Panel (http://bccm.belspo.be/about-us/bccm-lmg, accessed on 30 March 2021).
(§2) All bacteria species were cultivated in trypticase soy broth (TSB) medium (Biocorp, Warsaw, Poland) for 18 h at 37 °C with shaking (160 rpm). Overnight cultures of bacteria were diluted 1:100 into fresh TSB medium and then placed in each of the 96 wells of a microtiter transparent plate (Greiner, Monroe, NC, USA). The manganese(II) complexes—[Mn-pyOH-SO4]n, Mn-imCHO-NO3, Mn-imCHO-Cl, Mn-dipyCO-NO3—and the ligands—pyOH, pyCOOH—were prepared by dissolving compounds in distilled water. […] The starting stock solution was of 2-mM concentration.
(§3) The quantitative assay of the antibacterial activity was performed by the broth microdilution method, in 96-well microtiter plates, in order to establish the minimum inhibitory concentration (MIC). To this purpose, serial two-fold dilutions of the compounds ranging between 1 and 0.0625 mM were made. The details of the experiment were presented in our previous paper.

Experiment [2] deals with Pseudomonas aeruginosa LES B58. Put plainly: broth microdilution MIC, P. aeruginosa LES B58. The class given is cell-based. On the procedure: as §1, §2, §3
A general note: Broth dilution looks for growth in wells or tubes with falling amounts of substance.

Experiment [3] concerns Escherichia coli ATCC 8739. Description: broth microdilution MIC, E. coli. The class given is cell-based. As to the method:
as §1, §2, §3

Experiment [4] has as its system Pseudomonas aeruginosa PAO1. Description: broth microdilution MIC, P. aeruginosa PAO1. Format: cell-based. The note with it: P. aeruginosa PAO1, planktonic cells. On the procedure: as §1, §2, §3
Experiment [5] has as its target T1, catalase from the bovine liver (Bos taurus, UniProt P00432).
T1 construct: The catalase from the bovine liver solution; purchased Sigma–Aldrich; host or cells: bovine liver
T1 sequence (P00432 2-527 limits assumed): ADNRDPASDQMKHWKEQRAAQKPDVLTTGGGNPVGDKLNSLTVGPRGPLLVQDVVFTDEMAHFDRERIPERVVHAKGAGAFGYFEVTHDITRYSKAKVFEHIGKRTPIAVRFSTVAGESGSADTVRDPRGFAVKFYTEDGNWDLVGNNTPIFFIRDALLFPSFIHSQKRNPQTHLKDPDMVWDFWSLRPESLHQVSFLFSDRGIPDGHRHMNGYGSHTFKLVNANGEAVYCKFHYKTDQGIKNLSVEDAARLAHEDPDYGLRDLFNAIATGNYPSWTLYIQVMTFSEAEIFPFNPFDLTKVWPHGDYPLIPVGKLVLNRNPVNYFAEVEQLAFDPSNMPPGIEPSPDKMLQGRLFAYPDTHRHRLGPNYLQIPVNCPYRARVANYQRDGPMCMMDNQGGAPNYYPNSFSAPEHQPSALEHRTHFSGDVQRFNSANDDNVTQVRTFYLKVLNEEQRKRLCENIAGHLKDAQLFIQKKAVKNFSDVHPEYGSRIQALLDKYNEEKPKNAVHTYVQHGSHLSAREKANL
Description: catalase activity in the presence of the Mn(II) complexes (absorbance at 240 nm). Format: biochemical. The note with it: 0.5 mM complex, vs catalase alone. As to the method:
First, the complexes were incubated with the catalase in the presence of a phosphate buffer, and then hydrogen peroxide was added thereto. To study the effect of the manganese complexes on the activity of CAT, its performance, in the presence of similar concentrations of the Mn complexes (0.5 mM), was investigated. The percentage of absorbance reduction over time was recorded at 240 nm. The positive control was the catalase sample in the absence of the Mn(II) complex. Figure 12 illustrates the effect of the Mn(II) complexes on the catalase activity.
The effect of the manganese complexes on the activity of catalase (CAT) was determined using the spectrophotometric method. The decrease in absorbance due to hydrogen peroxide depletion was recorded at 240 nm by the V-780 UV-Vis/NIR spectrophotometer (Jasco, Easton, MD, USA). The tests were performed in a 50-mM potassium phosphate buffer (PBS) at 37 °C, pH = 7.0. The catalase from the bovine liver solution (Sigma–Aldrich, St. Louis, MO, USA, lyophilized powder, ≥10,000 units/mg protein) was prepared in the PBS buffer as an initial dilution of ~1000 units/mL at 37 °C. The hydrogen peroxide solution, approximately 0.03% (w/w), was prepared by dilution in the PBS buffer to achieve the absorbance close to 1 a.u, and the PBS was used as a blank. The manganese complexes were diluted in the PBS buffer to stock the concentration of 1 mM. The mixture of 500 µL of the hydrogen peroxide, 1 µL of the catalase (final 1U of catalase activity), and 500 µL of the manganese complexes, previously incubated in a water bath at 37 °C, was added to a quartz cuvette (10 mm, 1 mL), closed by a cover, and placed in the spectrophotometer. The absorbance readings were performed in 10-s intervals during the first minute of the incubation time at 37 °C. The results were presented as the dependence on the percentage of the absorbance reduction over time.

Experiment [6] relates to P. aeruginosa PAO1 biofilm. Put plainly: biofilm formation, crystal violet staining assay. As to conditions: for % Inhibit. Biofilm (0.25 mM) / % Inhibit. Biofilm (0.5 mM): P. aeruginosa PAO1, vs untreated control. The class given is cell-based, Pseudomonas aeruginosa. As to the method: as §2
To evaluate the effect of the compounds on P. aeruginosa biofilm formation, a crystal violet staining assay was used, following previously described protocols. The concentration of the investigated compounds was in the range 0.0625–1 mM. The amount of biofilm formed was determined by measuring the absorbance at λ = 595 nm with the Infinite M200 PRO microplate reader (Tecan, Männedorf, Switzerland). The measurement results, expressed in absorbance units, were converted into percentages to allow the comparison of numerical data obtained in different experiments.

In experiment [7] the test system is primary human fibroblasts (VH10). Put plainly: cytotoxicity, MTT test. As to conditions: VH10 cells, 24 h, 15–1000 µM. The class given is cell-based. As to the method:
Primary human fibroblasts (VH10) were cultured at 37 °C in a humidified 5% CO2 atmosphere in plastic dishes in Dulbecco’s modified eagle medium (DMEM) supplemented with 10% heat inactivated fetal calf serum, 2 mM of l-glutamine, and antibiotics (100 units/mL penicillin and 100 µg/mL streptomycin). Cytotoxic properties of manganese complexes were measured by EZcount^TM MTT cell assay kit (HiMedia Laboratories Pvt., Ltd., Mumbai, India) in accordance with the manufacturer’s instructions. Cells were seeded into a 96-well plate and incubated with manganese complexes in the concentration range of 15–1000 µM for 24 h at 37 °C in a humidified atmosphere of 5% CO2. After incubation, a solution of MTT (3-[4,5-dimethylthiazol-2-yl]-2, 5-diphenyl tetrazolium bromide) at a concentration (1 mg/mL) was added to each well. After incubation at 37 °C for 4 h, 100 µL of 0.04 M HCl in isopropanol was added to each well and mixed thoroughly to dissolve the dark blue crystals. The measurement of absorbance of the solution related to the number of live cells was conducted on a TECAN Spark Microplate Reader (TECAN, Männedorf, Switzerland) at 570 nm with a reference wavelength 600 nm. All samples were tested in three independent experiments. Results were normalized to the control.
Inhibitory concentrations (IC50) represent the concentrations of the tested samples required to inhibit 50% cell proliferation and were calculated from the mean values of data from wells.
A general note: Tetrazolium dyes change colour on reduction, which living cells bring about.

Experiment [8] relates to pyoverdine secretion by P. aeruginosa PAO1. Description: pyoverdine production (spectrofluorometric). The class given is cell-based, Pseudomonas aeruginosa. As to conditions: 0.5 mM complexes, 24 h, vs negative control (TSB medium with inoculated bacteria).
Description: In the experiment the spectrofluorometric method was used, and data were expressed as the relative light units (RLU).
Pyoverdine determination was performer in TSB medium. Measurement of pyoverdine fluorescence was performed at the excitation wavelength λ = 398 nm and the emission wavelength λ = 455 nm as described previously [66]. Experiments were carried out in triplicate in 96-well black flat-bottomed microtiter plates (Greiner, Monroe, NC, USA) for 24 h in cell-free culture medium using an Infinite M200PRO (Tecan, Männedorf, Switzerland). The assay was performed with the series of Mn(II) complexes (0.5 mM) and streptomycin as a positive control, and TSB medium with inoculated bacteria as a negative control. The siderophore secretion assay was conducted as three independent repeats. The results obtained were not disturbed by the emission band characteristic of the Mn(II) complexes.
[9] abbreviates: P. aeruginosa LES B58, planktonic cells.
The mark [10] stands for this setting: Staphylococcus aureus, ATCC6538P, S. aureus, planktonic cells, read-out: MIC.
Where [11] appears, read: Pseudomonas aeruginosa, LESB58, P. aeruginosa LES B58, planktonic cells, read-out: MIC.
Setting [12] is: Escherichia coli, ATCC8739, planktonic cells, read-out: MIC.
Setting [13] is: Pseudomonas aeruginosa, read-out: MIC.

On to `O.O.O.O.O=[N+]([O-])[O-].O=[N+]([O-])[O-].[Mn+2]` [Mn(NO3)2·4H2O], for which the MIC (in general, the smallest concentration in the dilution series that meets the test's criterion for growth inhibition) in experiment [1] (S. aureus, planktonic cells) was > 1 mM and > 251 μg/ml; in experiment [2] (setting [9]), > 1 mM and > 251 μg/ml; in experiment [3] (planktonic cells), > 1 mM and > 251 μg/ml; in experiment [4], > 1 mM and > 251 μg/ml.
For `O=C(c1ccccn1)c1ccccn1.O=C(c1ccccn1)c1ccccn1.O=[N+]([O-])[O-].O=[N+]([O-])[O-].[Mn+2]` [Mn-dipyCO-NO3], in experiment [5], the “Action on catalase activity” value is recorded as “attenuate the catalase activity”. For the same molecule, the MIC is > 1 mM and > 547 μg/ml in experiment [1] (S. aureus, planktonic cells); > 1 mM and > 547 μg/ml in experiment [2] (setting [9]); > 1 mM and > 547 μg/ml in experiment [3] (planktonic cells); > 1 mM and > 547 μg/ml in experiment [4]. Also, the “% Inhibit. Biofilm (0.25 mM)” value in experiment [6] is reported as 21%. Also, in experiment [6], the “% Inhibit. Biofilm (0.5 mM)” value was determined as 36%.
On to `Cc1[nH]cnc1C=O.Cc1[nH]cnc1C=O.[Cl-].[Cl-].[Mn+2]` [Mn-imCHO-Cl], for which the IC50 (as a rule, the concentration at which inhibition is half-maximal) in experiment [7] was > 1000 µM. For the same molecule, the “Action on catalase activity” value in experiment [5] was “attenuate the catalase activity”. In addition, the MIC in experiment [1] (S. aureus, planktonic cells) was > 1 mM and > 346 μg/ml; in experiment [2] (setting [9]), > 1 mM and > 346 μg/ml; in experiment [3] (planktonic cells), > 1 mM and > 346 μg/ml; in experiment [4], > 1 mM and > 346 μg/ml. Also, the “% Inhibit. Biofilm (0.25 mM)” value in experiment [6] is 24%. The “% Inhibit. Biofilm (0.5 mM)” value in experiment [6] was found to be 29%.
In the case of `O.O.O.O.[Cl][Mn][Cl]` [MnCl2·4H2O], the MIC is > 1 mM and > 198 μg/ml in experiment [1] (S. aureus, planktonic cells); > 1 mM and > 198 μg/ml in experiment [2] (setting [9]); > 1 mM and > 198 μg/ml in experiment [3] (planktonic cells); > 1 mM and > 198 μg/ml in experiment [4].
In the case of `O.O=S(=O)([O-])[O-].[Mn+2]` [MnSO4·H2O], the MIC in experiment [1] (S. aureus, planktonic cells) is > 1 mM and > 169 μg/ml; in experiment [2] (setting [9]), > 1 mM and > 169 μg/ml; in experiment [3] (planktonic cells), > 1 mM and > 169 μg/ml; in experiment [4], > 1 mM and > 169 μg/ml.
`[H]/N=C(/N)N[C@H]1[C@H](O)[C@@H](O)[C@H](O[C@@H]2O[C@@H](C)[C@](O)(C=O)[C@H]2O[C@@H]2O[C@@H](CO)[C@H](O)[C@@H](O)[C@@H]2NC)[C@@H](N/C(N)=N\[H])[C@@H]1O` [Streptomycin, reference compound]: the “decrease of pyoverdine production” value in experiment [8] is given as 96%. The MIC in experiment [1] (Staphylococcus aureus, ATCC6538P) is 125 µM; in experiment [1] (setting [10]) it was 73 µg/mL; in experiment [2] (Pseudomonas aeruginosa, LESB58), 125 µM; in experiment [2] (setting [11]), 73 µg/mL; in experiment [3] (setting [12]) it was 62.5 µM and 36 µg/mL; in experiment [4] (setting [13]), 62.5 µM and 36 µg/mL.
For `O=C(c1ccccn1)c1ccccn1` [dipyCO, dipyridin-2-ylmethanone], the MIC in experiment [1] (setting [10]) is > 1000 µM and > 184 µg/mL; in experiment [2] (setting [11]) it was > 1000 µM and > 184 µg/mL; in experiment [3] (setting [12]), > 1000 µM and > 184 µg/mL; in experiment [4] (setting [13]) it was > 1000 µM and > 184 µg/mL. For the same molecule, the inhibition (commonly the change of the read-out against control, counted positive when it falls) at 1000 µM in experiment [6] (Pseudomonas aeruginosa, PAO1, 1 mM, P. aeruginosa biofilm) amounted to 49%.
On to `Cc1nc[nH]c1C=O` [imCHO, 5(4)-carbaldehyde-4(5)-methylimidazole], for which the MIC in experiment [1] (S. aureus, planktonic cells) was > 1 mM and > 110 μg/ml; in experiment [2] (setting [9]) it was > 1 mM and > 110 μg/ml; in experiment [3] (planktonic cells), > 1 mM and > 110 μg/ml; in experiment [4] it was > 1 mM and > 110 μg/ml.
As for `O=C(O)c1cccnc1C(=O)O` [pyCOOH, pyridine-2,3-dicarboxylic anion], the MIC in experiment [1] (S. aureus, planktonic cells) was > 1 mM and > 167 μg/ml; in experiment [2] (setting [9]) it was > 1 mM and > 167 μg/ml; in experiment [3] (planktonic cells) it was > 1 mM and > 167 μg/ml; in experiment [4], > 1 mM and > 167 μg/ml.
Consider `OCc1ccccn1` [pyOH, 2-hydroxymethylpyridyne], for which the MIC in experiment [1] (S. aureus, planktonic cells) is > 1 mM and > 109 μg/ml; in experiment [2] (setting [9]) it was > 1 mM and > 109 μg/ml; in experiment [3] (planktonic cells) it was > 1 mM and > 109 μg/ml; in experiment [4], > 1 mM and > 109 μg/ml.

The values are drawn from article PMC8124774, “Tuning Anti-Biofilm Activity of Manganese(II) Complexes: Linking Biological Effectiveness of Heteroaromatic Complexes of Alcohol, Aldehyde, Ketone, and Carboxylic Acid with Structural Effects and Redox Activity” (International Journal of Molecular Sciences, 2021).
